According to patent US3988462A (priority 1972, dated 1976):
Converted amounts (≈) assume the structure as drawn. Read-outs that look alike come from different tables or passages of the source.

What was measured:
[1] = cited from earlier work
[2] = system: Vesicular stomatitis virus; assay: microbe, parasite or virus in culture; assay type: cell-based
[3] = Cytotoxicity, cylinder method; assay type: cell-based; details: read-out: Minimum Inhibitory Concentration, cylinder method
Procedure: (§1) A solution containing Antibiotic TS-885 was prepared as follows to determine the biological activity of Antibiotic TS-885. A 100 mg amount of 3-(5,7-dimethyl-2-hydroxy-4-oxo-6,8-decadienyl)-glutarimide (Antibiotic TS-885) was dissolved in a mixture of 0.6 ml of dimethyl-sulfoxide and 0.02 ml of polyoxyethylene sorbitane monolaurate (EO : 20). A 1.0 ml amount of a stirred saline solution (0.01 M phosphate buffered saline, pH 7.2) was added to the mixture to form a uniform solution which was followed by the addition of 48 ml of the saline solution. By this procedure a stock solution of Antibiotic TS-885 having a concentration of 2 mg/ml was prepared. The stock solution was diluted with the buffer solution for the following tests.
(§2) The cytotoxicity of Antibiotic TS-885 against various tissue culture cells was observed by the following two methods:
a. a cylinder method (on a thin seed plate)
a. A 10 ml amount of a cell suspension (3 × 10^5 cells/ml) was seeded in a petri dish having a diameter of 90 mm. The plates were incubated in a CO2 incubator at 37° C.
(§3) After 24 hours, the medium was removed and the plates were overlaid with 5 ml of an agar medium and one cylinder was placed on the medium. A 0.25 ml amount of a test sample was placed in the cylinder. After maintaining the plates for 2 hours at room temperature to diffuse Antibiotic TS-885 into the agar, the plate was incubated in the CO2 incubator at 37° C. After 48 hours, the cytotoxic effect of Antibiotic TS-885 was determined by the size of the diameter of the growth inhibitory zone around the cylinder. (2) In the tube dilution method, 2 × 10^5 cells were inoculated into a small test tube, and the tubes were incubated at 37° C for 24 hours. Solutions containing various concentrations of Antibiotic TS-885 were added to tubes of the cells and reincubated at […]. After 48 hours, the degenerated cells were microscopically observed.

Candida utilis IFO 0396 = assay: microbe, parasite or virus in culture; assay type: cell-based; details: Williopsis jadinii, IFO0396; read-out: Minimum inhibitory concentration
poliovirus [4] = assay type: cell-based
[5] = system: Brettanomyces anomalus IFO 0648; assay: Antimicrobial activity (Table III); assay type: cell-based; details: IFO0648, Malt Agar (M.A.), read-out: Minimum inhibitory concentration
Procedure: as §1
(§4) The antimicrobial spectra were observed by the pulp disc diffusion method and the agar streak method, and the results are shown in Tables II and III.

[6] = system: Saccharomyces rosei AHU 3174; assay: Antimicrobial activity (Table III); assay type: cell-based; details: Torulaspora delbrueckii, AHU3174; Malt Agar (M.A.); read-out: Minimum inhibitory concentration
Procedure: as §1, §4

Candida alibicans = assay: Antimicrobial activity (Table III); assay type: cell-based; details: Sabouraud's agar (S.A.), read-out: Minimum inhibitory concentration
Procedure: as §1, §4

[7] = system: Hansenula anomala IFO 0118; assay: Antimicrobial activity (Table III); assay type: cell-based; details: IFO0118, Malt Agar (M.A.), read-out: Minimum inhibitory concentration
Procedure: as §1, §4

Torula rubra var alpa = assay: Antimicrobial activity (Table III); assay type: cell-based; details: Malt Agar (M.A.), read-out: Minimum inhibitory concentration
Procedure: as §1, §4

R. rubra IFO 0001 = assay: Antimicrobial activity (Table III); assay type: cell-based; details: Malt Agar (M.A.); read-out: Minimum inhibitory concentration
Procedure: as §1, §4

[8] = system: Cryptococcus albidus IFO 0378; assay: Antimicrobial activity (Table III); assay type: cell-based; details: Naganishia albida, IFO0378; Malt Agar (M.A.); read-out: Minimum inhibitory concentration
Procedure: as §1, §4

[9] = system: Saccharomyces sake HUT 7119; assay: Antimicrobial activity (Table III); assay type: cell-based; details: HUT7119, Malt Agar (M.A.), read-out: Minimum inhibitory concentration
Procedure: as §1, §4

[10] = system: Phodotorula glutinis IFO 0754; assay: Antimicrobial activity (Table III); assay type: cell-based; details: Malt Agar (M.A.); read-out: Minimum inhibitory concentration
Procedure: as §1, §4

[11] = system: Saccharomyces fragilis IAM 7160; assay: Antimicrobial activity (Table III); assay type: cell-based; details: IAM7160, Malt Agar (M.A.), read-out: Minimum inhibitory concentration
Procedure: as §1, §4

Solubility = assay type: physicochemical
[12] = system: Candida parapsiiosis IFO 0708; assay: microbe, parasite or virus in culture; assay type: cell-based; details: IFO0708, read-out: Minimum inhibitory concentration
[13] = Toxicity in mice, repeated intravenous administration; assay type: in vivo; details: 20 mg/kg per day intravenous, once daily for 10 days (total 200 mg/kg)
Trychophyton rubrum = assay: microbe, parasite or virus in culture; assay type: cell-based; details: read-out: Minimum inhibitory concentration
poliovirus [14] = assay: microbe, parasite or virus in culture; assay type: cell-based
bacteria = assay type: cell-based
Candida tropicalis = assay: microbe, parasite or virus in culture; assay type: cell-based; details: read-out: Minimum inhibitory concentration
[15] = system: influenza virus-A2 /Kumamoto; assay type: in vivo, mice
[16] = system: mouse ascites tumor cells (Sarcoma 180); assay: Antitumor effect in mice; assay type: in vivo; details: intraperitoneally, once daily for six days
Procedure: 1,000,000 mouse ascites tumor cells (Sarcoma 180) were transplanted intraperitoneally into mice. 24 Hours after the mice were treated with the transplanted tumor cells, the mice were injected with various doses of the antibiotic once daily for six days intraperitoneally. […] It is that the life span of the antibiotic treated mice was prolonged.

[17] = system: Staphylococcus aureus 209P; assay: microbe, parasite or virus in culture; assay type: cell-based; details: read-out: Minimum inhibitory concentration
Mycoplasma pneumoniae = assay: microbe, parasite or virus in culture; assay type: cell-based; details: read-out: Minimum inhibitory concentration
[18] = Serum concentration after intravenous injection in mice; details: mouse
[19] = Cytotoxicity, tube dilution method; assay type: cell-based; details: read-out: Minimum Inhibitory Concentration, tube dilution method
Procedure: as §1, §2
b. a tube dilution method
as §3

yeasts = assay type: cell-based
mycoplasma = assay type: cell-based
[20] = Vesicular stomatitis virus, in Gallus gallus, read-out: Diameter of plaque free zone
[21] = chicken, chick embryo fibroblast cells, MEM medium
[22] = human, hela s3 cells, YLE medium
[23] = monkey, monkey kidney cells, MEM medium
[24] = Enterovirus C, read-out: Diameter of plaque free zone

## C=C/C(C)=C/[C@H](C)C(=O)C[C@H](O)CC1CC(=O)NC(=O)C1 [Streptimidone]
[1]; benzene, ethyl acetate, acetone, ethanol
  Solubility: Soluble
[1]; water
  Solubility: insoluble

## CC=CC(C)=CC(C)C(=O)CC(O)CC1CC(=O)NC(=O)C1 (stereo not shown) [Antibiotic TS-885, 3-(5,7-dimethyl-2-hydroxy-4-oxo-6,8-decadienyl)-glutarimide]
[2]; 20 mcg/ml
  Antiviral effect: toxic
[2]; 62.5 mcg/ml
  Antiviral effect: toxic
[2]; 100 mcg/ml
  Antiviral effect: toxic
[2]; 125 mcg/ml
  Antiviral effect: toxic
[2]; 250 mcg/ml
  Antiviral effect: toxic
[2]; [20]
  zone of inhibition at 0.3 µg/mL: 15.4 mm
  zone of inhibition at 0.6 µg/mL: 17.4 mm
  zone of inhibition at 1.25 µg/mL: 18.1 mm
  zone of inhibition at 2.5 µg/mL: 18.9 mm
  zone of inhibition at 5 µg/mL: 19.6 mm
  zone of inhibition at 10 µg/mL: 22.9 mm
  zone of inhibition at 20 µg/mL: 26.2 mm
  zone of inhibition at 62.5 µg/mL: 28.8 mm
  zone of inhibition at 100 µg/mL: 31.7 mm
  zone of inhibition at 125 µg/mL: 33.2 mm
  zone of inhibition at 250 µg/mL: 42 mm
[3]; [21]
  MCC at 48 h: 0.5 µg/mL
[3]; [22]
  MCC at 48 h: 0.2 µg/mL
[3]; [23]
  MCC at 48 h: 0.2 µg/mL
[3]; mouse, l-cells, YLE medium
  MCC at 48 h: 0.25 µg/mL
Candida utilis IFO 0396
  MIC: 100 µg/mL (≈ 325 µM)
Poliovirus [4]; 0.5 mcg/ml
  Antiviral effect: Toxic
Poliovirus [4]; 1 mcg/ml
  Antiviral effect: Toxic
Poliovirus [4]; 10 mcg/ml
  Antiviral effect: Toxic
[5]
  MIC: > 100 µg/mL
[6]
  MIC: 100 µg/mL (≈ 325 µM)
Candida alibicans
  MIC: > 100 µg/mL
[7]
  MIC: 20 µg/mL (≈ 65.1 µM)
Torula rubra var alpa
  MIC: 4 µg/mL (≈ 13 µM)
R. rubra IFO 0001
  MIC: 20 µg/mL (≈ 65.1 µM)
[8]
  MIC: 4 µg/mL (≈ 13 µM)
[9]
  MIC: 4 µg/mL (≈ 13 µM)
[10]
  MIC: 100 µg/mL (≈ 325 µM)
[11]
  MIC: 20 µg/mL (≈ 65.1 µM)
Solubility; acetone, chloroform, benzene, ethylacetate, ethanol, methanol, 1% aqueous sodium hydroxide solution, and pyridine
  Solubility: Soluble
Solubility; benzene, ethyl acetate, acetone, ethanol 1% NaOH
  Solubility: Soluble
Solubility; ether
  Solubility: Sparingly soluble
Solubility; water
  Solubility: water insoluble
Solubility; water and 5% aqueous hydrochloric acid
  Solubility: Insoluble
[12]
  MIC: > 100 µg/mL
[13]
  signs of toxicity: No signs of toxicity were observed
Trychophyton rubrum
  MIC: 1000 µg/mL (≈ 3250 µM)
Poliovirus [14]; 12.5 mcg/ml
  Antiviral effect: toxic
Poliovirus [14]; 25 mcg/ml
  Antiviral effect: toxic
Poliovirus [14]; [24]
  zone of inhibition at 0.5 µg/mL: 15 mm
  zone of inhibition at 1 µg/mL: 19.4 mm
  zone of inhibition at 5 µg/mL: 25 mm
  zone of inhibition at 6.25 µg/mL: 28.4 mm
  zone of inhibition at 12.5 µg/mL: 29.2 mm
  zone of inhibition at 25 µg/mL: 36 mm
bacteria
  antibacterial activity: no antibacterial
Candida tropicalis
  MIC: 100 µg/mL (≈ 325 µM)
[15]; 7 mg/kg intraperitoneally, survival day 7
  Survival / treated × 100 %: 100%
[15]; 7 mg/kg intraperitoneally, survival day 10
  Survival / treated × 100 %: 60%
[15]; 7 mg/kg intraperitoneally, survival day 13
  Survival / treated × 100 %: 35%
[15]; 7 mg/kg intraperitoneally, survival day 15
  Survival / treated × 100 %: 35%
[15]; 7 mg/kg intraperitoneally, survival day 20
  Survival / treated × 100 %: 35%
[15]; 22 mg/kg intraperitoneally, survival day 7
  Survival / treated × 100 %: 100%
[15]; 22 mg/kg intraperitoneally, survival day 10
  Survival / treated × 100 %: 80%
[15]; 22 mg/kg intraperitoneally, survival day 13
  Survival / treated × 100 %: 50%
[15]; 22 mg/kg intraperitoneally, survival day 15
  Survival / treated × 100 %: 50%
[15]; 22 mg/kg intraperitoneally, survival day 20
  Survival / treated × 100 %: 50%
[15]; 22 mg/kg, day not stated (footnote to Table VIII)
  survival rate: 50%
[16]; 2.5 mg/mouse per day
  growth of the ascites tumor: inhibits growth of the ascites tumor
[16]
  life span of the antibiotic treated mice: prolonged
[17]
  MIC: > 1000 µg/mL
Mycoplasma pneumoniae
  MIC: > 1000 µg/mL
[18]; 2.5 mg/kg
  concentration at 10 min: 1800 ng/mL
  concentration at 0.5 h: 580 ng/mL
[18]; 25 mg/kg
  concentration at 10 min: 2900 ng/mL
  concentration at 0.5 h: 2400 ng/mL
[19]; [21]
  MCC at 48 h: 1 µg/mL
[19]; [22]
  MCC at 48 h: 0.4 µg/mL
[19]; human, p3 hr-1 cells, MEM medium
  MCC at 48 h: 0.4 µg/mL
[19]; [23]
  MCC at 48 h: 0.4 µg/mL
[19]; mouse, l-cells, YLE medium
  MCC at 48 h: 0.5 µg/mL
yeasts
  inhibitory activity against some yeasts: inhibitory activity against some yeasts
mycoplasma
  antimycoplasmal activity: no antibacterial and antimycoplasmal activity

## NC12CC3CC(CC(C3)C1)C2 [Amantadine, 1,Adamantylamine, reference compound]
[15]; 20 mg/kg, survival day 7
  Survival / treated × 100 %: 100%
[15]; 20 mg/kg, survival day 10
  Survival / treated × 100 %: 60%
[15]; 20 mg/kg, survival day 13
  Survival / treated × 100 %: 10%
[15]; 20 mg/kg, survival day 15
  Survival / treated × 100 %: 0%
[15]; 20 mg/kg, survival day 20
  Survival / treated × 100 %: 0%
